Like-named read-outs stand apart in the source and are kept apart here.
What was measured:
blood pressure [1] = details: reported, Erspamer et al.; cited from earlier work
[2] = tested on: ACTH and β-endorphin secretion; details: reported; cited from earlier work
[3] = tested on: ACTH and β-END-LI secretion; experiment: secretion of ACTH and β-END-LI, general procedure (Examples V, VI); details: general procedure of Example III as printed
Experimental: (§1) The urotensin peptides from Examples II and III are examined for effects on the secretion of ACTH and β-endorphin in vitro and also examined in vivo. […] UI activity of the peptides was measured by the isolated rat hind limb assay, Lederis, K. et al. "Effects and Assay of Urotensin I on the Perfused Hind Limb of the Rat", Gen. Comp. Endocrinol., 24:10-16, 1974. In vivo hypotensive activity of extracted peptides was measured in anaesthetized rats, Lederis, K. and Medakovic, M. "Pharmacological Observations on the Hypotensive Action of Extracts of Teleost Fish Urophyses (Urotensin I) in the Rat", Br. J. Pharmacol. 51:315-324, 1974, and in anaesthetized dogs, MacCannell and Lederis, "Dilatation of the Mesenteric Vascular Bed of the Dog Produced by a Peptide, Urotensin I", J. Pharm. Exp. Ther. 203:38-46, 1977.
(§2) The peptide having the formula: Ac-[…]NH2 is synthesized.

blood pressure [4] = experiment: mammalian vasodilatory-hypotensive activity (mesenteric blood flow, systemic blood pressure), species not stated; type: in vivo
Experimental: as §1, §2
The peptide having the formula: H-Pro-Pro-Ile-Ser-Ile-Asp-Leu-Thr-Phe-His-Leu-Leu-Arg-Asn-Met-Ile-Glu-Met- Ala-Arg-Ile-Glu-Asn-Glu-Arg-NH2 is synthesized.

[5] = tested on: cultured rat pituitary cells; experiment: secretion of ACTH and β-endorphin by cultured rat pituitary cells; type: cell-based; details: for potency to stimulate the secretion of ACTH and β-endorphin: in vitro; for potency to stimulate ACTH and β-endorphin secretion compared with amunine (CRF): the two peptides substantially indistinguishable from each other
Experimental: as §1

[6] = tested on: ACTH and β-END-LI secretion; experiment: ACTH and β-END-LI secretion in vivo in several rat preparations
Experimental: as §1

mesenteric vascular bed [7] = experiment: blood pressure and mesenteric vasodilatation in the anaesthetized dog; type: in vivo; details: for potency of synthetic peptide versus extracted and purified peptide: anaesthetized dog in vivo; for dilatation of other (non-mesenteric) vascular beds / depression of the blood pressure: dog; for depression of the blood pressure: appears due solely to dilatation of the mesenteric vascular bed; for accompanying change in blood pressure (decrease) / increase in mesenteric flow: pentobarbital-anaesthetized dog, doses of 0.1-0.5 μg
Experimental: as §1
(§3) In the pentobarbital-anaesthetized dog, the threshold dose of UI for mesenteric vasodilatation, when given close arterially into the cephalic mesenteric A, is between 0.001 and 0.01 μg for both sucker UI (1-41) and for the 4-41 fragment of sucker UI. Doses of 0.1-0.5 μg of both peptides produce a 50-150% increase in mesenteric flow; accompanying changes in blood pressure are very modest (about 10% decrease). […] Comp. Endocrinol. 45:446-452, 1981. Comparison of the two extracted and the two synthetic sucker peptides indicate that synthetic UI(1-41) have 111±16% activity and synthetic UI (4-41) have 123±14% activity, relative to the activity of the respective extracted sucker UI peptides.

mesenteric vascular bed [8] = experiment: blood pressure and vascular dilatation in the monkey; type: in vivo; details: for depression of the blood pressure: appears due solely to dilatation of the mesenteric vascular bed
Experimental: as §1

blood pressure [9] = experiment: in vivo hypotensive activity in anaesthetized rats; details: rat; vascular dilatation appears less selective
Experimental: (§4) UI activity in the fractions was measured by the isolated rat hind limb assay, Lederis, K. et al. "Effects and Assay of Urotensin I on the Perfused Hind Limb of the Rat." Gen Comp Endocrinol. 24:10-16, 1974. In vivo hypotensive activity of extracted peptides or those obtained by enzymatic cleavage was measured in anaesthetized rats, Lederis, K. et al. "Pharmacological Observations on the Hypotensive Action of Extracts of Teleost Fish Urophyses (Urotensin I) in the Rat", Br. J. Pharmac. 51:315-324, 1974.
as §1

teleost fish pituitaries = experiment: secretion of ACTH by teleost fish pituitaries
Experimental: as §1

isolated rat hind limb = isolated rat hind limb assay
Experimental: as §4
as §1, with “1977. […]” for “1977.”

[10] = tested on: isolated mesenteric artery strips; experiment: isolated mesenteric artery strips of the rat
Experimental: as §3

[11] = comparison of extracted and synthetic sucker peptides (activity relative to extracted peptide); details: synthetic versus extracted peptide
Experimental: as §3

| Molecule | vasodilatory-hypotensive activity (mesenteric blood flow, systemic blood pressure) (blood pressure [4]) | potency to stimulate the secretion of ACTH and β-endorphin [5] | potency to stimulate ACTH and β-endorphin secretion compared with amunine (CRF) [5] | stimulation of ACTH and β-END-LI secretion in vivo [6] | potency of synthetic peptide versus extracted and purified peptide (mesenteric vascular bed [7]) | dilatation of other (non-mesenteric) vascular beds (mesenteric vascular bed [7]) | depression of the blood pressure (mesenteric vascular bed [7]) | accompanying change in blood pressure (decrease) (mesenteric vascular bed [7]) | increase in mesenteric flow (mesenteric vascular bed [7]) | dilatation of other (non-mesenteric) vascular beds (mesenteric vascular bed [8]) | depression of the blood pressure (mesenteric vascular bed [8]) | fall in blood pressure (blood pressure [9]) | potency in stimulating the secretion of ACTH relative to amunine (teleost fish pituitaries) | potency of synthetic peptide versus extracted and purified peptide (isolated rat hind limb) | potency of synthetic peptide versus extracted and purified peptide [10] | activity relative to the activity of the respective extracted sucker UI peptide [11] [%] | other results |
| --- | --- | --- | --- | --- | --- | --- | --- | --- | --- | --- | --- | --- | --- | --- | --- | --- | --- |
| CC[C@H](C)[C@H](NC(=O)[C@@H](NC(=O)[C@H](CC(=O)O)NC(=O)[C@H](CC(C)C)NC(=O)[C@H](CC(C)C)NC(=O)[C@H](CC(C)C)NC(=O)[C@H](CCCNC(=N)N)NC(=O)[C@H](CC(N)=O)NC(=O)[C@H](CC(N)=O)NC(=O)[C@H](C)NC(=O)[C@H](C)NC(=O)[C@H](CCC(N)=O)NC(=O)[C@H](CCC(N)=O)NC(=O)[C@H](CCCCN)NC(=O)[C@H](CCC(=O)O)NC(=O)[C@H](CCCCN)NC(=O)[C@H](CCC(=O)O)NC(=O)[C@H](CCC(N)=O)NC(=O)[C@H](CCCCN)NC(=O)[C@H](CCC(=O)O)NC(=O)[C@@H](NC(=O)[C@H](CCC(=O)O)NC(=O)[C@@H](NC(=O)[C@H](CCSC)NC(=O)[C@H](CCCCN)NC(=O)[C@H](CCCNC(=N)N)NC(=O)[C@H](CC(C)C)NC(=O)[C@H](CC(C)C)NC(=O)[C@H](CCC(=O)O)NC(=O)[C@H](CC(C)C)NC(=O)[C@H](CO)NC(=O)[C@H](CC(C)C)NC(=O)[C@H](CC(=O)O)NC(=O)[C@@H](NC(=O)[C@H](CO)NC(=O)[C@@H](NC(=O)[C@@H]1CCCN1C(=O)[C@@H]1CCCN1C(=O)CNC(=O)[C@@H]1CCC(=O)N1)[C@@H](C)CC)[C@@H](C)CC)[C@@H](C)CC)[C@@H](C)CC)[C@@H](C)O)C(N)=O [Sauvagine] |  |  |  |  |  |  |  |  |  |  |  |  |  |  |  |  | lowering blood pressure in mammals (blood pressure [1]): biological activity in lowering blood pressure in mammals; stimulating the secretion of ACTH and β-endorphin [2]: stimulating the secretion of ACTH and β-endorphin |
| Ac-APPISIDLTFHLLRNMIEMARIENEREQAGLNRKYLDEV-NH2 [V] | very significant increasing of mesenteric blood flow and lowering of systemic blood pressure |  |  |  |  |  |  |  |  |  |  |  |  |  |  |  | stimulation of the secretion of ACTH and β-END-LI [3]: stimulates the secretion of ACTH and β-END-LI |
| H-NDDPPISIDLTFHLLRNMIEMARIENEREQAGLNRKYLDEV-NH2 [urotensin I] | substantially lower blood presssure for an extended time period | high potency | comparable to amunine (CRF) | stimulate ACTH and β-END-LI secretion in vivo | equipotent with the extracted and purified peptides | neither peptide dilates other vascular beds | modest but sustained depression of the blood pressure | about 10% | 50-150% | neither peptide dilates other vascular beds | modest but sustained depression of the blood pressure | more marked fall in blood pressure | several times more potent than amunine | equipotent with the extracted and purified peptides | equipotent with the extracted and purified peptides | 111±16 | potency to stimulate the secretion of ACTH and β-endorphin ([5]; listed as synthetic UI): stimulate ACTH and β-endorphin activies in vitro; stimulation of ACTH and β-END-LI secretion in vivo ([6]; listed as synthetic UI): stimulate ACTH and β-endorphin activies in vitro and in vivo |
| H-PPISIDLTFHLLRNMIEMARIENER-NH2 [VI, H-Pro-Pro-Ile-Ser-Ile-Asp-Leu-Thr-Phe-His-Leu-Leu-Arg-Asn-Met-Ile-Glu-Met- Ala-Arg-Ile-Glu-Asn-Glu-Arg-NH2] | significant mammalian vasodilatory-hypotensive activity |  |  |  |  |  |  |  |  |  |  |  |  |  |  |  |  |
| H-PPISIDLTFHLLRNMIEMARIENEREQAGLNRKYLDEV-NH2 [urotensin I (4-41)] | substantially lower blood presssure for an extended time period | high potency | comparable to amunine (CRF) | stimulate ACTH and β-END-LI secretion in vivo | equipotent with the extracted and purified peptides | neither peptide dilates other vascular beds | modest but sustained depression of the blood pressure | about 10% | 50-150% | neither peptide dilates other vascular beds | modest but sustained depression of the blood pressure | more marked fall in blood pressure | several times more potent than amunine | equipotent with the extracted and purified peptides | equipotent with the extracted and purified peptides | 123±14 | potency to stimulate the secretion of ACTH and β-endorphin ([5]; listed as UI 4-41): stimulate ACTH and β-endorphin activies in vitro; stimulation of ACTH and β-END-LI secretion in vivo ([6]; listed as UI 4-41): stimulate ACTH and β-endorphin activies in vitro and in vivo |
